Measured values reported in publication PMC8551967 (Frontiers in Microbiology, 2021).
Non-standard residues stand in square brackets, D forms with d. Residues, ends and D or L forms follow the SMILES beside them. *: point of attachment. Leu(ol) = CC(C)C[C@H](N)CO; Octanoyl = CCCCCCCC(=O)*; Aib = CC(C)(N)C(=O)O

Experiments:
[1] = test system: Pyricularia oryzae IT10 strain on rice (cv. Vialone Nano); conditions: in vivo
[2] = test system: P. oryzae (IT10 strain) conidia; type: cell-based, Pyricularia oryzae
[3] = test system: Pyricularia oryzae IT10 strain on barley leaves (cv. Alora); conditions: in vivo
[4] = test system: Pyricularia oryzae (strains AP, Guy11, I203 and IT10); conditions: for inhibition of fungal growth compared to the untreated control: 96 h, 50 μM, pH 6.85
P. oryzae IT10 strain = type: cell-based, Pyricularia oryzae
P. oryzae Guy11 strain = type: cell-based, Pyricularia oryzae
P. oryzae I203 strain = type: cell-based, Pyricularia oryzae
P. oryzae AP strain = type: cell-based, Pyricularia oryzae
P. oryzae conidia = type: cell-based, Pyricularia oryzae; conditions: pH 7

| Compound | reduction in Disease Severity Index (DSI) [1] | morphology and germination of treated conidia [2] | reduction of blast lesion area in comparison with untreated barley leaves [3] | significance of lesion inhibition compared to the Control [3] | inhibition of fungal growth compared to the untreated control [4] | inhibition of fungal growth (in words) [4] | further results |
| --- | --- | --- | --- | --- | --- | --- | --- |
| CCCCCCCC(=O)NC(C)(C)C(=O)N[C@@H](CCCCN)C(=O)N[C@@H](CC(C)C)C(=O)NC(C)(C)C(=O)N[C@@H](CCCCN)C(=O)NCC(=O)N[C@@H](CC(C)C)C(=O)NC(C)(C)C(=O)N[C@@H](CCCCN)C(=O)N[C@H](C(=O)N[C@H](CO)CC(C)C)[C@@H](C)CC [Pep 5] (Octanoyl-[Aib]KL[Aib]KGL[Aib]KI[Leu(ol)]) | 65-70% | important morphological changes | higher than 95% | Significant inhibition | more than 90% | – | representative lesions on rice leaves (in words) [1]: reduced lesions |
| Palmitoyl-His-Ala-Ala-His-Lys(ε-Ser)-Gly-COOH [Pep 19] | – | germinated normally and did not show any morphological alteration | – | – | – | relatively little or no inhibition against one or two strains | inhibition of IT10 strain (in words) (P. oryzae IT10 strain): partially inhibited; inhibition of Guy11 strain (in words) (P. oryzae Guy11 strain): did not inhibit; inhibition of I203 strain (in words) (P. oryzae I203 strain): did not inhibit; inhibition of AP strain (in words) (P. oryzae AP strain): did not inhibit |
| CCCCCCCC(=O)NC(C)(C)C(=O)N[C@@H](CCCCN)C(=O)N[C@@H](CC(C)C)C(=O)NC(C)(C)C(=O)NCC(=O)NCC(=O)N[C@@H](CC(C)C)C(=O)NC(C)(C)C(=O)NCC(=O)N[C@H](C(=O)N[C@H](CO)CC(C)C)[C@@H](C)CC [Pep 2] (Octanoyl-[Aib]KL[Aib]GGL[Aib]GI[Leu(ol)]) | – | important morphological changes | ineffective | – | more than 90% | – | – |
| nOct-Aib-Gly-Leu-Aib-Lys-Aib-Leu-Aib-Gly-Ile-Lol [Pep 6] | – | germinated normally and did not show any morphological alteration | – | – | – | – | mycelium growth in the presence of the peptide versus untreated control (P. oryzae conidia): grew better than the untreated control |
| nOct-Aib-Gly-Leu-Aib-Lys-Gly-Leu-Aib-Gly-Ile-Lol [Pep 3] | inefficacy | – | – | – | – | – | – |
| nOct-Aib-Gly-Leu-Aib-Gly-Gly-Leu-Api-Gly-Ile-Lol [Pep 8Api] | 50-55% | important morphological changes | higher than 95% | Significant inhibition | – | relatively little or no inhibition against one or two strains | – |
| nOct-Aib-Gly-Leu-Aib-Gly-Lys-Leu-Aib-Gly-Ile-Lol [Pep 22] | – | – | ineffective | – | – | relatively little or no inhibition against one or two strains | – |
| nOct-Aib-Lys-Leu-Aib-Gly-Lys-Leu-Aib-Gly-Ile-Lol [Pep 7] | 65-70% | – | higher than 95% | Significant inhibition | – | relatively little or no inhibition against one or two strains | – |
| CCCCCCCC(=O)NC(C)(C)C(=O)NCC(=O)N[C@@H](CC(C)C)C(=O)NC(C)(C)C(=O)N[C@@H](CCCCN)C(=O)N[C@@H](CCCCN)C(=O)N[C@@H](CC(C)C)C(=O)NC(C)(C)C(=O)NCC(=O)N[C@H](C(=O)N[C@H](CO)CC(C)C)[C@@H](C)CC [Pep 4] | 65-70% | important morphological changes | higher than 95% | Significant inhibition | more than 90% | – | – |
| nOct-Aib-Gly-Leu-Aib-Gly-Gly-Leu-Aib-Gly-Ile-Lol [Trichogin, Trichogin GA IV, reference compound] | – | – | ineffective | – | – | – | activity of trichogin against P. oryzae in vitro [4]: ineffective |
| CCCCCCCC(=O)NC(C)(C)C(=O)N[C@@H](CCCCN)C(=O)N[C@@H](CCCCN)C(=O)N[C@@H](CC(C)C)C(=O)NC(C)(C)C(=O)NCC(=O)N[C@H](C(=O)N[C@H](CO)CC(C)C)[C@@H](C)CC [Pep 4C] (Octanoyl-[Aib]KKL[Aib]GI[Leu(ol)]) | – | important morphological changes | ~70% | Significant inhibition | more than 90% | – | – |
| nOct-Aib-Gly-Leu-Aib-Lys-Lys-Leu—Leu-NH2 [Pep 4C1] | – | – | ineffective | – | – | relatively little or no inhibition against one or two strains | – |
| H-FKR[Aib]KK[Aib]FKK[Aib]WNWK-NH2 [Pep 12] | – | – | – | – | – | relatively little or no inhibition against one or two strains | – |
| CCCCCCCC(=O)NC(C)(C)C(=O)N[C@@H](CCCCN)C(=O)N[C@@H](CC(C)C)C(=O)NC(C)(C)C(=O)NCC(=O)NCC(=O)N[C@@H](CC(C)C)C(=O)NC(C)(C)C(=O)NCC(=O)N[C@H](C(=O)N[C@@H](CC(C)C)C(N)=O)[C@@H](C)CC [Pep 2Rink] (Octanoyl-[Aib]KL[Aib]GGL[Aib]GIL-NH2) | 65-70% | – | about 92% | Significant inhibition | more than 90% | – | representative lesions on rice leaves (in words) [1]: reduced lesions; representative lesions on barley leaves (in words) [3]: Almost no lesions |
| nOct-Aib—Lys-Lys-Leu-Aib-Gly-Ile-Leu-NH2 [Pep 4C2] | 65-70% | – | about 75% | Significant inhibition | – | relatively little or no inhibition against one or two strains | representative lesions on rice leaves (in words) [1]: reduced lesions |
